Laboratory results from PMC8689681 (The Journal of Experimental Medicine, 2021).

Molecular target: ADAM17 (Homo sapiens, UniProt P78536)
Test: fluorogenic peptide
Type: biochemical

Chain of ADAM17 (P78536 215-474 limits assumed): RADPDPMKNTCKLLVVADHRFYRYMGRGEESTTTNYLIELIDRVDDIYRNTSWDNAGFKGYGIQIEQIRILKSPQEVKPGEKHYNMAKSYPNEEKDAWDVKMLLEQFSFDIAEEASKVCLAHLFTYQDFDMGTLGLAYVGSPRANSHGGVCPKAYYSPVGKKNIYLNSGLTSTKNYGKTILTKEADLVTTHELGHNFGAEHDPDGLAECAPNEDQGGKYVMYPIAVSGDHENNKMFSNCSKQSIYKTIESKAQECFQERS

- IC50: 128 ± 0.9 nM
SMILES: CC(C)C[C@H](CC(=O)NO)C(=O)N[C@@H](Cc1ccc2ccccc2c1)C(=O)N[C@@H](C)C(=O)NCCN [TAPI-1]
